From ChEMBL document CHEMBL5726731, “Substituted benzenesulfonamides as sodium channel blockers” (2019) come the findings set out here.

The nature of test [1]: (§1) Measurement of Sodium Ion Channel Blocking Effects: In order to measure the sodium ion channel blocking effect, an IonFlux16 Auto patch clamp system (Fluxion, Inc.) and a plate for exclusive use were used. The cells were distributed in an extracellular solution (4 mM KCl, 138 mM NaCl, 1 mM MgCl2, 1.8 mM CaCl2, 5.6 mM glucose, 10 mM HEPES, pH 7.45), and then dispensed in the specified region of the plate, and each of the prepared compound samples was diluted at various concentrations, and then dispensed in the specified region of the plate. The test is classed as cell-based. (Patch clamp records ionic current or voltage across a cell membrane.)

The nature of test [2]: as §1. In kind it is cell-based. This is another data set of the same source.

Bounds are passed on as bounds.

Consider `CNCCN(C)c1cc(F)ccc1Nc1cc(F)c(S(=O)(=O)Nc2ncc(Cl)s2)cc1Cl`, for which the IC50 (as a rule, the concentration at which inhibition is half-maximal) came out at 8 nM in test [1] and 5540 nM in test [2]. `C[C@@H]1CNCCN1c1cc(Cl)ccc1Nc1cc(F)c(S(=O)(=O)Nc2cscn2)cc1Cl`: the IC50 in test [1] was 103 nM; in test [2], 6720 nM. `CNC1CCN(c2cc(F)ccc2Nc2cc(F)c(S(=O)(=O)Nc3cncnc3)cc2Cl)C1` (stereo not drawn): the IC50 in test [1] and in test [2] was above 10000 nM each time. Consider `CNCCN(C)c1cc(F)ccc1Nc1cc(F)c(S(=O)(=O)Nc2nccs2)cc1Cl`, for which the IC50 in test [1] is 20 nM; in test [2], above 10000 nM.

For `CNC1CCN(c2cc(OC)ccc2Nc2cc(F)c(S(=O)(=O)Nc3cscn3)cc2Cl)C1` (stereo not drawn), the values for the IC50 in test [1] and in test [2] were 12 nM and above 10000 nM, respectively. `CNC1CCN(c2ccccc2Nc2ccc(S(=O)(=O)Nc3cscn3)cc2)C1` (stereo not drawn): the concentration for half-maximal inhibition (IC50) in test [1] was 51 nM; in test [2], above 10000 nM. `CNC1CCN(c2ccccc2Nc2ccc(S(=O)(=O)Nc3cscn3)cc2Cl)C1` (stereo not drawn): the IC50 in test [1] was 13 nM; in test [2], above 10000 nM. `C[C@H]1CN(c2cc(Cl)ccc2Nc2cc(F)c(S(=O)(=O)Nc3cscn3)cc2Cl)CCN1`: the IC50 in test [1] is 1500 nM; in test [2], above 10000 nM. The like results for `CNC1CCN(c2cc(F)ccc2Nc2cc(F)c(S(=O)(=O)Nc3ncc(F)cn3)cc2Cl)C1` (stereo not drawn) were, in that order, 110 nM and above 10000 nM. As to `CNCCN(C)c1cc(C#N)ccc1Nc1cc(F)c(S(=O)(=O)Nc2cscn2)cc1Cl`, the figures for the IC50 in test [1] and in test [2] were 120 nM and above 10000 nM, respectively.

As to `CNC1CCN(c2cc(F)ccc2Nc2ccc(S(=O)(=O)Nc3cscn3)cc2)C1` (stereo not drawn), the IC50 in test [1] is 396 nM; in test [2] it was above 10000 nM. Regarding `CNCCN(C)c1cc(F)ccc1Nc1cc(F)c(S(=O)(=O)Nc2ncc(F)s2)cc1Cl`, the figures for the concentration for half-maximal inhibition (IC50) in test [1] and in test [2] were 9 nM and 1830 nM, respectively.

As for `CNC1CCN(c2cc(F)ccc2Nc2cc(F)c(S(=O)(=O)Nc3cc(C)on3)cc2Cl)C1` (stereo not drawn), the IC50 in test [1] is 360 nM; in test [2] it was above 10000 nM. The matching figures for `CNC1CCN(c2ccccc2Nc2ccc(S(=O)(=O)Nc3cscn3)c(F)c2)C1` (stereo not drawn): 53 nM and above 10000 nM. For the compound `CNCCN(C)c1cc(C#N)ccc1Nc1cc(F)c(S(=O)(=O)Nc2ncc(F)cn2)cc1Cl`, the IC50 was 1090 nM in test [1] and above 10000 nM in test [2]. As to `CNCCN(C)c1ccccc1Nc1cc(F)c(S(=O)(=O)Nc2cscn2)cc1Cl`, the half-inhibitory concentration (IC50) was 40 nM in test [1] and above 10000 nM in test [2]. As to `CNCCN(C)c1ccccc1Nc1cc(F)c(S(=O)(=O)Nc2ncc(F)cn2)cc1Cl`, the IC50 in test [1] was 100 nM; in test [2] it was above 10000 nM.

Take `CN1CCN(c2cc(OC(F)(F)F)ccc2Nc2cc(F)c(S(=O)(=O)Nc3cscn3)cc2Cl)CC1`: the results for the IC50 in test [1] and in test [2] were 28 nM and above 10000 nM, respectively. Take `CN[C@@H]1CCCN(c2cc(F)ccc2Nc2ccc(S(=O)(=O)Nc3cscn3)cc2Cl)C1`: the IC50 is 49 nM in test [1] and above 10000 nM in test [2]. For `CNCCN(C)c1cc(F)ccc1Nc1cc(F)c(S(=O)(=O)Nc2ccccn2)cc1Cl`, the IC50 in test [1] is 110 nM; in test [2] it was above 10000 nM. `CNC1CCN(c2c(F)cccc2Nc2cc(F)c(S(=O)(=O)Nc3cscn3)cc2Cl)C1` (stereo not drawn): the IC50 was 86 nM in test [1] and above 10000 nM in test [2]. The like results for `CNC1CCN(c2cc(C(F)(F)F)ccc2Nc2ccc(S(=O)(=O)Nc3cscn3)c(F)c2)C1` (stereo not drawn) were, in that order, 58 nM and above 10000 nM. Compound `CNCCN(C)c1cc(Cl)ccc1Nc1cc(F)c(S(=O)(=O)Nc2ncc(F)cn2)cc1Cl` showed an IC50 in test [1] of 120 nM. This lies in the sub-micromolar range. Same read-out and setting: then `CNC1CCN(c2cc(OC)ccc2Nc2ccc(S(=O)(=O)Nc3cscn3)cc2Cl)C1` (stereo not drawn), with above 1000 nM. In the case of `CNC1CCN(c2cc(Cl)ccc2Nc2cc(F)c(S(=O)(=O)Nc3cscn3)cc2Cl)C1` (stereo not drawn), the results for the IC50 in test [1] and in test [2] were 26 nM and above 10000 nM, respectively.

Take `COC1CCN(c2cc(F)ccc2Nc2cc(F)c(S(=O)(=O)Nc3cscn3)cc2Cl)C1` (stereo not drawn): the IC50 in test [1] came out at 277 nM. The compound `O=S(=O)(Nc1cscn1)c1cc(Cl)c(Nc2ccc(F)cc2N2CCCNCC2)cc1F` displayed a concentration for half-maximal inhibition (IC50) in test [1] of 149 nM.

`CN[C@@H]1CCCN(c2cc(OC)ccc2Nc2ccc(S(=O)(=O)Nc3cscn3)c(F)c2)C1`: the IC50 in test [1] is above 1000 nM. Still for that read-out and setting: in the case of `CN(C)[C@H]1CCN(c2cc(C(F)(F)F)ccc2Nc2cc(F)c(S(=O)(=O)Nc3cscn3)cc2Cl)C1` it was 1170 nM; in that of `CNCCN(C)c1ccccc1Nc1cc(F)c(S(=O)(=O)Nc2nccs2)cc1Cl`, 50 nM. Take `CNCCN(C)c1cc(C(F)(F)F)ccc1Nc1cc(F)c(S(=O)(=O)Nc2ncc(F)cn2)cc1Cl`: the IC50 in test [1] is 60 nM; in test [2], above 10000 nM. The like results for `CN[C@@H]1CCCN(c2cc(F)ccc2Nc2cc(F)c(S(=O)(=O)Nc3cscn3)cc2Cl)C1` were, in that order, 66 nM and above 10000 nM. In test [1], `CNC1CCN(c2cc(C)ccc2Nc2cc(F)c(S(=O)(=O)Nc3cscn3)cc2Cl)C1` (stereo not drawn) came in with a concentration for half-maximal inhibition (IC50) of 489 nM. The same measure, in the same setting: then `O=S(=O)(Nc1cscn1)c1ccc(Nc2ccc(F)cc2N2CC[C@@H](F)C2)cc1F`, with above 1000 nM. Turning to `CNC1CCN(c2c(F)cccc2Nc2ccc(S(=O)(=O)Nc3cscn3)c(F)c2)C1` (stereo not drawn), in test [1], the IC50 was 686 nM. The same measure, in the same setting: then `CNC1CCN(c2cc(F)ccc2Nc2ccc(S(=O)(=O)Nc3cscn3)cc2Cl)C1` (stereo not drawn), with 1010 nM; and `O=S(=O)(Nc1cscn1)c1ccc(Nc2ccc(F)cc2N2CC[C@@H](F)C2)c(Cl)c1`, with above 1000 nM. Still for that read-out and setting: in the case of `CNCCN(C)c1cc(F)ccc1Nc1cc(F)c(S(=O)(=O)Nc2ncco2)cc1Cl` it was 360 nM; in that of `CNCCN(C)c1cc(C#N)ccc1Nc1cc(F)c(S(=O)(=O)Nc2ccccn2)cc1Cl`, 460 nM.

The compound `CC(=O)N[C@@H]1CCN(c2cc(C(F)(F)F)ccc2Nc2ccc(S(=O)(=O)Nc3cscn3)cc2Cl)C1` showed an IC50 in test [1] of 216 nM. The same measure, in the same setting: in the case of `CN[C@@H]1CCCN(c2cc(OC)ccc2Nc2c(F)cc(S(=O)(=O)Nc3cscn3)cc2F)C1` it was above 1000 nM; in that of `CN[C@@H]1CCN(c2cc(F)ccc2Nc2ccc(S(=O)(=O)Nc3cscn3)c(F)c2)C1`, above 300 nM. `CNCCN(C)c1cc(C#N)ccc1Nc1cc(F)c(S(=O)(=O)Nc2ccc(F)cn2)cc1Cl`: the figures for the IC50 in test [1] and in test [2] were 230 nM and above 10000 nM, respectively. For `CN[C@@H]1CCN(c2cc(F)ccc2Nc2c(F)cc(S(=O)(=O)Nc3cscn3)cc2F)C1`, the IC50 in test [1] is above 1000 nM. As to `CNC1CCN(c2cc(F)ccc2Nc2cc(F)c(S(=O)(=O)Nc3cnccn3)cc2Cl)C1` (stereo not drawn), the IC50 in test [1] is 300 nM; in test [2], above 10000 nM. Consider `COC1CCN(c2cc(C(F)(F)F)ccc2Nc2ccc(S(=O)(=O)Nc3cscn3)cc2Cl)C1` (stereo not drawn), for which the IC50 in test [1] was found to be 352 nM.

`CN(C)[C@@H]1CCN(c2cc(C(F)(F)F)ccc2Nc2cc(F)c(S(=O)(=O)Nc3cscn3)cc2Cl)C1` returned an IC50 in test [1] of 278 nM. Same read-out and setting: then `CN(C)CCN(C)c1cc(F)ccc1Nc1cc(F)c(S(=O)(=O)Nc2cscn2)cc1Cl`, with 100 nM. In the case of `CNC1CCN(c2cc(F)ccc2Nc2cc(F)c(S(=O)(=O)Nc3cscn3)cc2Cl)C1` (stereo not drawn), the IC50 in test [2] is above 10000 nM. As for `CNCCN(C)c1cc(C(F)(F)F)ccc1Nc1cc(F)c(S(=O)(=O)Nc2cscn2)cc1Cl`, the IC50 turned out to be 30 nM in test [1] and 8200 nM in test [2].
